# Reference: paper PMC11413853, “Discovery of VU6007496: Challenges in the Development of an M1 Positive Allosteric Modulator Backup Candidate” (ACS Chemical Neuroscience, 2024)
# “Also recorded” adds a separate entry of the source.
# What was measured:
# Histamine H2 = test: Eurofins radioligand binding; set-up: species or system Human; conditions: specific binding
# [1] = system: layer V medial prefrontal cortex (mPFC); test: Field electrophysiology, layer V medial prefrontal cortex slices; set-up: species or system mouse; conditions: 3 μM bath application 20 min; recorded layer V, stimulation layer II/III
# Protocol: PAMs 11 and 12 were next evaluated in our rat IV plasma: brain level cassette paradigm (0.25 mg/kg compound, 1 mg/kg total dose, 10.1% EtOH:40.4% PEG400:49.5% DMSO) sampled at a set 15 min time point to assess CNS penetration. […] As mice are the most sensitive species to cholinergic mechanisms,[11],[13],[23],[24] we placed a high-throughput phenotypic seizure liability assay into the work-flow in which potent ago-PAMs, such as 2–5,[8]−[15] display robust Racine scale 4/5 behavioral convulsions that develop within minutes of dosing and last for the 3 h duration of the study. […] In parallel, we performed electrophysiology studies in mouse native tissue layer V medial prefrontal cortex (mPFC). […]
# Rats were habituated for 10 min for 2 consecutive days in an empty novel object recognition (NOR) arena consisting of dark-colored plexiglass box (40 × 64 × 33 cm3). […] The rats were then returned to the arena in which one of the previously exposed (familiar) objects was replaced by a novel object and were video recorded for 5 min while they explored the two objects. Time spent exploring each object was scored by an observer blinded to the experimental conditions and the recognition index was calculated as [(time spent exploring novel object) – (time spent exploring familiar object)]/total time exploring objects. […]
# Muscarinic M2 = test: Eurofins radioligand binding; set-up: species or system Human; conditions: specific binding
# CYP2B6 = test: CYP induction (mRNA) in cryopreserved human hepatocytes, CYP2B6; format: in vitro ADME; conditions: three donors
# From the text: (§1) To advance 11 as a candidate and into IND-enabling studies, we next needed to better understand its CYP profile to minimize drug–drug interactions in the clinic. […] We were pleased to see the contribution of another CYP beyond 3A4 for the metabolism of 11.[21] In parallel, we investigated the ability of PAM 11 to induce the expression of CYP450s (measuring mRNA) in cryopreserved human hepatocytes from three separate donors.
# Adrenergic β1 = test: Eurofins radioligand binding; set-up: species or system Human; conditions: specific binding
# [2] = system: Purinergic P2Y, Non-Selective; test: Eurofins radioligand binding; set-up: species or system Rat; conditions: specific binding
# Sigma σ1 = test: Eurofins radioligand binding; set-up: species or system Human; conditions: specific binding
# Neuropeptide Y Y1 = test: Eurofins radioligand binding; set-up: species or system Human; conditions: specific binding
# Glutamate, NMDA, Agonism = test: Eurofins radioligand binding; set-up: species or system Rat; conditions: specific binding
# Serotonin (5-HT3) = test: Eurofins radioligand binding; set-up: species or system Human; conditions: specific binding
# Prostanoid EP4 = test: Eurofins radioligand binding; set-up: species or system Human; conditions: specific binding
# rats = test: Novel object recognition (NOR) test; format: in vivo, rat
# Protocol: Novel Object Recognition Task
# Rats were habituated for 10 min for 2 consecutive days in an empty novel object recognition (NOR) arena consisting of dark-colored plexiglass box (40 × 64 × 33 cm3). On day 3, rats were administered vehicle (0.5% natrasol/0.015% Tween80) or M1 PAM (0.1-3 mg/kg, p.o.., 10 mL/kg, n = 15-18) and returned to their home cage for 30 min. Rats were then placed in the NOR arena containing two identical objects for 10 min. Following the exposure period, rats were placed back into their home cages for 24 h. The rats were then returned to the arena in which one of the previously exposed (familiar) objects was replaced by a novel object and were video recorded for 5 min while they explored the two objects. Time spent exploring each object was scored by an observer blinded to the experimental conditions and the recognition index was calculated as [(time spent exploring novel object) – (time spent exploring familiar object)]/total time exploring objects.
# Supplemental field electrophysiology methods
# Recording pipettes were constructed from thin-walled borosilicate capillary glass tubing (I.D.=1.17 mm, O.D. 1.50 mm; Warner Instruments, Hamden, CT), pulled with a horizontal pipette puller (P-97 Sutter Instrument Co., Novata, CA) to a resistance of 1-3MΩ when filled with ACSF. […]
# Dopamine D1 = test: Eurofins radioligand binding; set-up: species or system Human; conditions: specific binding
# Endothelin ETB = test: Eurofins radioligand binding; set-up: species or system Human; conditions: specific binding
# Adenosine A2A = test: Eurofins radioligand binding; set-up: species or system Human; conditions: specific binding
# Adrenergic α1A = test: Eurofins radioligand binding; set-up: species or system Human; conditions: specific binding
# Bradykinin B1 = test: Eurofins radioligand binding; set-up: species or system Human; conditions: specific binding
# [3] = system: Nicotinic Acetylcholine α3β4; test: Eurofins radioligand binding; set-up: species or system Human; conditions: specific binding
# [4] = system: Leukotriene, Cysteinyl CysLT1; test: Eurofins radioligand binding; set-up: species or system Human; conditions: specific binding
# GABAA, Muscimol, Central = test: Eurofins radioligand binding; set-up: species or system Rat; conditions: specific binding
# Cannabinoid CB1 = test: Eurofins radioligand binding; set-up: species or system Human; conditions: specific binding
# Imidazoline I2, Central = test: Eurofins radioligand binding; set-up: species or system Rat; conditions: specific binding
# Opiate κ (OP2, KOP) = test: Eurofins radioligand binding; set-up: species or system Human; conditions: specific binding
# Dopamine D2S = test: Eurofins radioligand binding; set-up: species or system Human; conditions: specific binding
# rCYP3A4 = test: Substrate depletion with recombinant human CYPs, rCYP3A4; format: in vitro ADME
# From the text: as §1
# Adenosine A1 = test: Eurofins radioligand binding; set-up: species or system Human; conditions: specific binding
compound,measurement,setting,value
Cn1ccc(-c2ccc(Cc3cc(C(=O)NC4CCOCC4)nc4ccn(C)c34)cc2)n1 [compound 11],% Inhibition at 10 µM,Histamine H2,28%
same,change in fEPSP slope (long-term depression),[1],did not induce significant changes; also recorded: no significant change in fEPSP slope
same,% Inhibition at 10 µM,Muscarinic M2,0%
same,CYP2B6 induction (mRNA),CYP2B6,~8 fold
same,% Inhibition at 10 µM,Adrenergic β1,-14%
same,% Inhibition at 10 µM,[2],-9%
same,% Inhibition at 10 µM,Sigma σ1,-8%
same,% Inhibition at 10 µM,Neuropeptide Y Y1,-10%
same,% Inhibition at 10 µM,"Glutamate, NMDA, Agonism",0%
same,% Inhibition at 10 µM,Serotonin (5-HT3),-3%
same,% Inhibition at 10 µM,Prostanoid EP4,16%
same,effect on recognition memory (NOR),"rats; rats, 0.1, 0.3, 1, and 3 mg/kg p.o., 30 min pretreatment, assessed 24 h later",dose-dependently enhanced recognition memory
same,minimum effective dose (MED) in novel object recognition,"rats; rats, p.o.",3 mg/kg
same,% Inhibition at 10 µM,Dopamine D1,5%
same,% Inhibition at 10 µM,Endothelin ETB,-5%
same,% Inhibition at 10 µM,Adenosine A2A,-11%
same,% Inhibition at 10 µM,Adrenergic α1A,-1%
same,% Inhibition at 10 µM,Bradykinin B1,21%
same,% Inhibition at 10 µM,[3],6%
same,% Inhibition at 10 µM,[4],3%
same,% Inhibition at 10 µM,"GABAA, Muscimol, Central",-1%
same,% Inhibition at 10 µM,Cannabinoid CB1,5%
same,% Inhibition at 10 µM,"Imidazoline I2, Central",-9%
same,% Inhibition at 10 µM,"Opiate κ (OP2, KOP)",32%
same,% Inhibition at 10 µM,Dopamine D2S,5%
same,"share of hepatic CYP-mediated clearance, rCYP3A4",rCYP3A4,97.6%
same,% Inhibition at 10 µM,Adenosine A1,10%
